Patent US9682953B2, “Amide compounds, compositions and applications thereof” (Advinus Therapeutics Limited, priority 2011, dated 2017)
Where two headings read alike, the source gives them in different places.

What was measured:
[1] = target: rat Fatty Acid Amide Hydrolase (FAAH) (Rattus norvegicus (Rat), UniProt P97612); assay: FAAH in vitro fluorescence assay (AAMCA hydrolysis), rat enzyme; format: biochemical; details: for inhibition at 0.1 µM: read-out: rFAAH % inhibition at 100 nM
Description: Material and Reagents: All reagents were purchased from Sigma-Aldrich unless specified. […] Chaperone protein groEL-groES in pGRO7 plasmid (Takara Bio Inc, Japan) was co-expressed with Fatty Acid Amide Hydrolase (FAAH) to improve solubility of the protein expressed in E coli. […] Briefly, the bacterial cultures in Luria Broth (2 L) were induced with arabinose (2 mM) and Isopropyl (β-D-1-thiogalactopyranoside, IPTG (1 mM), for 20 h at room temperature. The cultures were centrifuged at 1200×g for 10 min and the cell pellet was resuspended in 100 mL buffer containing of 20 mM NaPi (pH 7.4), 100 mM NaCl, Benzonase (500u), Aprotinin (1 μg/mL) and Leupeptin (1 μg/mL). Cells were lyzed by sonication (Amp 20%, Pulse 15 s×15, on ice) and the cell debris removed by centrifugation at 5000×g for 20 min. The supernatant was enriched via ultracentrifugation at 100,000×g for 1 h and the cell pellet was resuspended in 16 mL buffer containing 20 mM NaPi (pH 7.8), 500 mM NaCl, 1% Triton X-100. The resuspended cell extract was subjected to ultra-centrifugation at 100,000×g for 1 h and the enriched supernatant was used in the in vitro assay. All protein extraction steps were carried out on ice or at 4° C.
The assay was carried out in 200 μL volume in a 96-well black polystyrene plate (Greiner Bio-one, Germany). Each reaction consisted of human Fatty Acid Amide Hydrolase (FAAH) protein and 10 μM AAMCA in assay buffer containing 50 mM HEPES, 1 mM EDTA and 0.1% BSA, pH 7.4. The reaction was incubated with 2 μL of varying concentrations of inhibitor in DMSO (final concentration of DMSO 1%) with shaking for 1 min and monitored for increase in fluorescence in kinetic mode for 50 min. […] Rate of reaction as a function of the concentration of the inhibitor was used to determine the IC50 of the inhibitors. Data was analyzed using GraphPad Prism 5 (GraphPad Software Inc., San Diego, Calif.). The activity of the compounds for rat Fatty Acid Amide Hydrolase (FAAH) was evaluated as described above with rat Fatty Acid Amide Hydrolase (FAAH) protein and 10 μM AAMCA substrate.

[2] = target: human Fatty Acid Amide Hydrolase (FAAH) (Homo sapiens (Human), UniProt O00519); assay: biochemical; details: for inhibition at 0.1 µM: read-out: hFAAH % inhibition at 100 nM, 100 nM (tier I)
[3] = human FAAH, read-out: hFAAH IC50

Sequence of rat Fatty Acid Amide Hydrolase (FAAH) (P97612 30-579): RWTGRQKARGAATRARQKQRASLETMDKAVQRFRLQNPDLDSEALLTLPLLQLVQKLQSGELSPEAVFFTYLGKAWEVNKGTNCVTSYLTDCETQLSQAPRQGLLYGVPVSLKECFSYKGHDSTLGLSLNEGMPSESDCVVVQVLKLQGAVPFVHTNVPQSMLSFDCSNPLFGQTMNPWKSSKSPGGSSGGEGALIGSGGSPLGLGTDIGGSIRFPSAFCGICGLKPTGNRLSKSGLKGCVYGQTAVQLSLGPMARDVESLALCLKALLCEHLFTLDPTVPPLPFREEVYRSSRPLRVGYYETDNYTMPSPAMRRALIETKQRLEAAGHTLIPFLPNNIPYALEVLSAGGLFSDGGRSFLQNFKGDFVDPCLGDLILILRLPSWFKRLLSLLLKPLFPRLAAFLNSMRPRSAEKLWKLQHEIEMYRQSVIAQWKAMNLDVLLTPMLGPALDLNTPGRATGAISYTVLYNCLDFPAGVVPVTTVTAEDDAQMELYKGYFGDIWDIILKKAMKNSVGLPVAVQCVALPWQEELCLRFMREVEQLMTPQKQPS
Sequence of human Fatty Acid Amide Hydrolase (FAAH) (O00519 30-579): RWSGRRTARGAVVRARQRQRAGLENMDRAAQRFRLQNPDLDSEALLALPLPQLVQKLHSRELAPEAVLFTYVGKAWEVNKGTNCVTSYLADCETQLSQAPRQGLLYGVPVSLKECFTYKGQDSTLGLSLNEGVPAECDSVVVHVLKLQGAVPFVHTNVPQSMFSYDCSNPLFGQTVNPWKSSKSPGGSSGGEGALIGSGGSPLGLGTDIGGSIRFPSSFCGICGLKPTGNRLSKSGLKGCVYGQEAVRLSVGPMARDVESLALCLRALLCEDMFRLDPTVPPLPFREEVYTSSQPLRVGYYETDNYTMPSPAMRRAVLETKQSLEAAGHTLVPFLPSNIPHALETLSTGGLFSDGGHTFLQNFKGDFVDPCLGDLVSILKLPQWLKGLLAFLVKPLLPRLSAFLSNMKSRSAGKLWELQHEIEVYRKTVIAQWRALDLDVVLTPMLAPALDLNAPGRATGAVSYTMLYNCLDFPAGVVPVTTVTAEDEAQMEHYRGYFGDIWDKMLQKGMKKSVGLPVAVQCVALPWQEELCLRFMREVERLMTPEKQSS

| Structure (SMILES) | IC50 ([1]; rat FAAH, read-out: rFAAH IC50) | IC50 ([2]; read-out: hFAAH IC50) | IC50 [2, 3] | other results |
| --- | --- | --- | --- | --- |
| O=C(NC1CCC(=Cc2cccc(Oc3ccc(C(F)(F)F)cn3)c2)CC1)c1cccnc1F (stereo not shown) [Example 2.A-26, 2-Fluoro-N-[4-[[3-[[5-(trifluoromethyl)-2-pyridyl]oxy]phenyl]methylene]cyclohexyl]pyridine-3-carboxamide] | 0.084 µM | 0.005 µM | – | – |
| O=C(NC1CCC(=Cc2cccc(Oc3ccc(C(F)(F)F)cn3)c2)CC1)c1ccc(-c2cn[nH]c2)nc1 (stereo not shown) [Example 2.B-5, 6-(1H-Pyrazol-4-yl)-N-[4-[[3-[[5-(trifluoromethyl)-2-pyridyl]oxy]phenyl]methylene]cyclohexyl]pyridine-3-carboxamide] | 0.009 µM | – | 0.002 µM | – |
| Cc1nc(Oc2cccc(C=C3CCC(NC(=O)c4ccc(N)nc4)CC3)c2)ccc1C(F)(F)F (stereo not shown) [Example 2.E-17, 6-Amino-N-[4-[[3-[[6-methyl-5-(trifluoromethyl)-2-pyridyl]oxy]phenyl]methylene]cyclohexyl]pyridine-3-carboxamide] | 0.027 µM | 0.003 µM | – | – |
| O=C(NC1CCC(=Cc2cccc(Oc3ccc(C(F)(F)F)cn3)c2)CC1)c1c[nH]c2ccccc12 (single isomer, unassigned; (-)) [Example 20.A-18, (−)-N-[4-[[3-[[5-(trifluoromethyl)-2-pyridyl]oxy]phenyl]methylene]cyclohexyl]-1H-indole-3-carboxamide] | – | – | 0.004 µM | IC50 [1]: 0.035 µM |
| Cc1ncccc1C(=O)NC1CCC(=Cc2cccc(Oc3ccc(C(F)(F)F)cn3)c2)CC1 (stereo not shown) [Example 2.A-28, 2-Methyl-N-[4-[[3-[[5-(trifluoromethyl)-2-pyridyl]oxy]phenyl]methylene]cyclohexyl]pyridine-3-carboxamide] | – | – | 0.031 µM | rFAAH % inhibition at 100 nM ([1]; rat FAAH, 100 nM (tier I)): No inhibition at 100 nM |
| O=C(NC1CCC(=Cc2cccc(Oc3ccc(C(F)(F)F)cn3)c2)CC1)c1cncc(-n2cccn2)c1 (stereo not shown) [Example 2.B-7, 5-Pyrazol-1-yl-N-[4-[[3-[[5-(trifluoromethyl)-2-pyridyl]oxy]phenyl]methylene]cyclohexyl]pyridine-3-carboxamide] | 0.085 µM | – | 0.006 µM | – |
| Nc1ncc(C(=O)NC2CCC(=Cc3cccc(Oc4ccc(C(F)(F)F)cn4)c3)CC2)cn1 (stereo not shown) [Example 2.C-6, 2-Amino-N-[4-[[3-[[5-(trifluoromethyl)-2-pyridyl]oxy]phenyl]methylene]cyclohexyl]pyrimidine-5-carboxamide] | 0.016 µM | 0.001 µM | – | – |
| O=C(NC1CCC(=Cc2cccc(Oc3ccc(C(F)(F)F)cn3)c2)CC1)c1ccc(-c2cc[nH]n2)nc1 (stereo not shown) [Example 2.B-4, 6-(1H-Pyrazol-3-yl)-N-[4-[[3-[[5-(trifluoromethyl)-2-pyridyl]oxy]phenyl]methylene]cyclohexyl]pyridine-3-carboxamide] | 0.011 µM | – | 0.002 µM | – |
| O=C(NC1CCC(=Cc2cccc(Oc3ccc(C(F)(F)F)cn3)c2)CC1)c1cnc2[nH]ccc2c1 [Example 2.D-5, N-[4-[[3-[[5-(Trifluoromethyl)-2-pyridyl]oxy]phenyl]methylene]cyclohexyl]-1H-pyrrolo[2,3-b]pyridine-5-carboxamide] | 0.016 µM | 0.002 µM | – | – |
| O=C(NC1CCC(=Cc2cccc(Oc3ccc(C(F)(F)F)cn3)c2)CC1)c1cncc(Cl)c1 (stereo not shown) [Example 2.A-32, 5-Chloro-N-[4-[[3-[[5-(trifluoromethyl)-2-pyridyl]oxy]phenyl]methylene]cyclohexyl]pyridine-3-carboxamide] | – | – | 0.006 µM | inhibition at 0.1 µM ([1]; rat FAAH, 100 nM (tier I)): 40% |
| O=C(NC1CCC(=Cc2cccc(Oc3ccc(C(F)(F)F)cn3)c2)CC1)c1ccccn1 (stereo not shown) [Example 2.A-4, N-[4-[[3-[[5-(Trifluoromethyl)-2-pyridyl]oxy]phenyl]methylene]cyclohexyl]pyridine-2-carboxamide] | – | – | 0.508 µM | inhibition at 30 µM ([1]; read-out: rFAAH % inhibition at 30 uM, rat FAAH, 30 uM): 70% |
| CC(C)c1[nH]ncc1C(=O)NC1CCC(=Cc2cccc(Oc3ccc(C(F)(F)F)cn3)c2)CC1 (stereo not shown) [Example 2.A-39, 5-Isopropyl-N-[4-[[3-[[5-(trifluoromethyl)-2-pyridyl]oxy]phenyl]methylene]cyclohexyl]-1H-pyrazole-4-carboxamide] | 0.03 µM | – | 0.063 µM | – |
| O=C(NC1CCC(=Cc2cccc(Oc3ccc(C(F)(F)F)cn3)c2)CC1)c1cccnn1 (single isomer, unassigned; (-)) [Example 20.A-16, (−)-N-[4-[[3-[[5-(trifluoromethyl)-2-pyridyl]oxy]phenyl]methylene]cyclohexyl]pyridazine-3-carboxamide] | 0.115 µM | 0.004 µM | – | – |
| O=C(NC1CCC(=Cc2cccc(Oc3ccc(C(F)(F)F)cn3)c2)CC1)c1c[nH]nc1C(F)(F)F (single isomer, unassigned; (-)) [Example 20.A-8, (−)-3-(Trifluoromethyl)-N-[4-[[3-[[5-(trifluoromethyl)-2-pyridyl]oxy]phenyl]methylene]cyclohexyl]-1H-pyrazole-4-carboxamide] | 0.03 µM | 0.001 µM | – | – |
| O=C(NC1CCC(=Cc2cccc(Oc3ccc(C(F)(F)F)cn3)c2)CC1)c1cncc(F)c1 (stereo not shown) [Example 2.A-15, 5-Fluoro-N-[4-[[3-[[5-(trifluoromethyl)-2-pyridyl]oxy]phenyl]methylene]cyclohexyl]pyridine-3-carboxamide] | – | – | – | IC50 [1]: 0.188 µM; IC50 ([2]; hFAAH IC50): 0.005 µM |
| O=C(NC1CCC(=Cc2cccc(Oc3ccc(C(F)(F)F)cn3)c2)CC1)c1ccc(Cl)nc1 (stereo not shown) [Example 2.A-22, 6-Chloro-N-[4-[[3-[[5-(trifluoromethyl)-2-pyridyl]oxy]phenyl]methylene]cyclohexyl]pyridine-3-carboxamide] | 0.081 µM | – | 0.005 µM | – |
| Cc1n[nH]c(C)c1C(=O)NC1CCC(=Cc2cccc(Oc3ccc(C(F)(F)F)cn3)c2)CC1 (stereo not shown) [Example 2.A-35, 3,5-Dimethyl-N-[4-[[3-[[5-(trifluoromethyl)-2-pyridyl]oxy]phenyl]methylene]cyclohexyl]-1H-pyrazole-4-carboxamide] | – | 0.029 µM | – | inhibition at 0.1 µM ([1]; rat FAAH, 100 nM (tier I)): 38% |
| Cc1nc(Oc2cccc(C=C3CCC(NC(=O)c4c[nH]nc4C(F)(F)F)CC3)c2)ccc1C(F)(F)F (stereo not shown) [Example 2.E-18, N-[4-[[3-[[6-Methyl-5-(trifluoromethyl)-2-pyridyl]oxy]phenyl]methylene]cyclohexyl]-3-(trifluoromethyl)-1H-pyrazole-4-carboxamide] | – | – | 0.013 µM | inhibition at 0.1 µM ([1]; rat FAAH, 100 nM (tier I)): 55% |
| O=C(O)Cn1cc(-c2ccc(C(=O)NC3CCC(=Cc4cccc(Oc5ccc(C(F)(F)F)cn5)c4)CC3)cn2)cn1 (stereo not shown) [Example 8.A-1, 2-[4-[5-[[4-[[3-[[5-(Trifluoromethyl)-2-pyridyl]oxy]phenyl]methylene]cyclohexyl]carbamoyl]-2-pyridyl]pyrazol-1-yl]acetic acid] | – | – | – | inhibition at 0.1 µM ([1]; rat FAAH, 100 nM (tier I)): 15%; inhibition at 0.1 µM ([2]; human FAAH): 72% |
| Cc1n[nH]c(C(C)C)c1C(=O)NC1CCC(=Cc2cccc(Oc3ccc(C(F)(F)F)cn3)c2)CC1 (stereo not shown) [Example 2.A-38, 5-Isopropyl-3-methyl-N-[4-[[3-[[5-(trifluoromethyl)-2-pyridyl]oxy]phenyl]methylene]cyclohexyl]-1H-pyrazole-4-carboxamide] | – | – | – | inhibition at 0.1 µM ([1]; rat FAAH, 100 nM (tier I)): 54%; inhibition at 0.1 µM ([2]; human FAAH): 20% |
| Cc1ccn(-c2ccc(C(=O)NC3CCC(=Cc4cccc(Oc5ccc(C(F)(F)F)cn5)c4)CC3)cn2)n1 (stereo not shown) [Example 2.B-9, 6-(3 -Methylpyrazol-1-yl)-N-[4-[[3-[[5-(trifluoromethyl)-2-pyridyl]oxy]phenyl]methylene]cyclohexyl]pyridine-3-carboxamide] | 0.022 µM | – | 0.009 µM | – |
| O=C(NC1CCC(=Cc2cccc(Oc3ccc(C(F)(F)F)cn3)c2)CC1)c1cnc2[nH]ccc2c1 (single isomer, unassigned; (+)) [Example 20.A-13, (+)-N-[4-[[3-[[5-(trifluoromethyl)-2-pyridyl]oxy]phenyl]methylene]cyclohexyl]-1H-pyrrolo[2,3-b]pyridine-5-carboxamide] | 0.407 µM | 0.055 µM | – | – |
| O=C(NC1CCC(=Cc2cccc(Oc3ccc(C(F)(F)F)cn3)c2)CC1)c1cccnn1 (single isomer, unassigned; (+)) [Example 20.A-15, (+)-N-[4-[[3-[[5-(trifluoromethyl)-2-pyridyl]oxy]phenyl]methylene]cyclohexyl]pyridazine-3-carboxamide] | 0.408 µM | 0.431 µM | – | – |
